The record followed here is PubChem BioAssay AID449764 (Southern Research Specialized Biocontainment Screening …, 2010).

The test system of the assay is Mycobacterium tuberculosis H37Rv growth inhibition, no glycerol. Put plainly: Confirmatory growth inhibition assay, Mycobacterium tuberculosis H37Rv, absence of glycerol (AID 449764).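 As to all read-outs here: growth read after 7 days of incubation.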 Conditions: for IC90: measured here: IC90 growth inhibition.

By IC50 is commonly meant the midpoint of a concentration-inhibition curve. The IC90 is the point of the concentration-response curve where the effect stands at 90%. A lower IC90 goes with an effect from little substance. For `COc1cccc(C(=O)NC2CC3CCCC(C2)N3CC(=O)Nc2ccc(N(C)C)cc2)c1` (configuration not stated), the IC50 was 21.8 µM and the IC90 was 24.4 µM.

Regarding `Cc1cc(Cl)ccc1NNC(=O)CCc1ccccc1`, the IC50 is 84.1 µM and the IC90 is over 100 µM.

In the case of `CC(C)COCc1ccc(O)c2ncccc12`, the IC50 was 2.18 µM and the IC90 was 2.59 µM.

`CC(=O)Oc1ccc(/C=N\NC(=O)c2cc3c(ccc4ccccc43)o2)cc1` showed an IC90 of over 100 µM.

Regarding `NNC(=S)NCc1ccc2c(c1)OCO2`, the IC50 was 99.3 µM and the IC90 was over 100 µM.

For the compound `O=C(C[C@@H]1C/C=C\C[C@H](NC(=O)OCC2c3ccccc3-c3ccccc32)C(=O)OC[C@H]2CCCN2C1=O)N[C@@H](CO)Cc1ccccc1`, the IC50 is 27.3 µM and the IC90 was found to be 37.2 µM.

For the compound `CCn1c(SCC(=O)OC2CCCCC2)nc2ccccc2c1=O`, the half-maximal inhibitory concentration (IC50) is 40.3 µM and the concentration for an effect of 90% (IC90) amounted to 55.1 µM.

Consider `O=C(c1ccc(Cl)cc1)N1N=C(c2ccccn2)CC1(O)C(F)(F)F` (configuration not stated), for which the IC50 is 25.7 µM and the IC90 was over 100 µM.

For `C=CCOc1ccc(C2=NOC(C(=O)Nc3ccc4c(c3)OCCO4)C2)cc1` (configuration not stated), the IC50 is 41.4 µM and the IC90 amounted to 60 µM.

Turning to `O=C(C1CC1)N1CCCC(c2ccc(Cl)cc2)=N1`, the half-inhibitory concentration (IC50) was 42.3 µM and the IC90 stood at 63.5 µM.

As to `CN1CCN(C2Cc3ccccc3Sc3cc(C(F)(F)F)ccc32)CC1` (configuration not stated), the 50% inhibitory concentration (IC50) is 14 µM and the IC90 was 17.4 µM.

For the compound `CCOc1ccc(NC(=O)CCc2nnc3ccc(N4CCC(C)CC4)nn23)cc1`, the IC50 is 12.5 µM and the IC90 is 14.7 µM.

For `O=C(/C=C/c1cn(-c2ccccc2)nc1-c1cccnc1)c1ccco1`, the IC50 is 39.5 µM and the IC90 came out at 54.8 µM.

`O=S1(=O)CCC(N=Cc2ccc(-c3ccc(Cl)cc3)o2)C1` (configuration not stated) returned an IC90 of over 100 µM.

As to `CCc1ccc2oc(-c3ccc(OC)cc3)cc(=Nc3c(C)n(C)n(-c4ccccc4)c3=O)c2c1`, the IC50 is 18.8 µM and the IC90 came to 23.4 µM.

In the case of `Cc1nc2scc(-c3cccs3)c2c(=O)n1-n1cccc1`, the IC50 is 88.7 µM and the IC90 was over 100 µM.

As for `CCc1ccc(NCc2ccc(OC)c(Cn3ccnc3)c2)cc1`, the IC50 was 21.5 µM and the IC90 worked out at 23.7 µM.

On to `CNc1ncnc2c1ncn2[C@@H]1O[C@H](CO)[C@@H](O)[C@H]1O`, for which the IC50 was 3.97 µM and the IC90 is 9.18 µM.

For `Nc1nc(Cl)cc(N2CCC(c3cc(-c4ccc(Cl)cc4Cl)n[nH]3)CC2)n1`, the IC50 is 25.9 µM and the IC90 was determined as 30.1 µM.

For `CCOc1ccc(NC(=O)CSc2nc(O)c(C)c(=O)n2-c2ccc(F)cc2)cc1`, the IC50 is 34.7 µM and the concentration for an effect of 90% (IC90) stood at 59.2 µM.

Take `COC(=O)COc1ccc(-c2ccccc2)cc1C=O`: the IC50 was 16.1 µM and the IC90 turned out to be 26 µM.

`O=C(Nc1nnc(C2=COCCO2)o1)c1ccc(Cc2ccccc2)cc1`: the IC50 is 11.7 µM and the IC90 came out at 20.3 µM.

Turning to `Cc1cccc(N2CCN(CCCNC(=O)c3ccc(NC(=O)C4=CSCCO4)cc3)CC2C)c1` (configuration not stated), the IC50 is 19.7 µM and the IC90 was determined as 28.7 µM.

Turning to `Cc1[nH]n(-c2ccccc2)c(=O)c1C(C[N+](=O)[O-])c1ccccc1Cl` (configuration not stated), the IC50 was 23.4 µM and the IC90 worked out at 27.1 µM.

The compound `COc1ccccc1NC(=O)Nc1nc(CC(=O)N2CCN(c3ccccc3F)CC2)cs1` displayed an IC90 of over 100 µM.

Regarding `CN1C(=O)/C(=C/c2cccc(Cl)c2)Sc2ccc(C(=O)N3CCCC3)cc21`, the IC50 is 20.6 µM and the IC90 is 49.9 µM.

With `O=C(Nc1cccc(-c2nc3ccccc3s2)c1)c1cc(-n2cnnc2)ccc1Cl`, the half-maximal inhibitory concentration (IC50) was 14 µM and the IC90 worked out at 22 µM.

Turning to `CN(CCO)c1cc(Sc2nc3ccccc3s2)c2nonc2c1[N+](=O)[O-]`, the IC50 is 74.4 µM and the IC90 came to 95 µM.

On to `O=c1cc(CCl)nc(Cc2c(Cl)cccc2Cl)[nH]1`, for which the IC50 is 10.5 µM and the IC90 was over 100 µM.

Regarding `COc1ccccc1C(=O)NNC(=O)C(=O)NCc1ccccc1`, the IC50 was 22.8 µM and the IC90 amounted to 40.6 µM.

The compound `Nc1cc([N+](=O)[O-])cc2oc(-c3ccccc3)cc12` returned an IC90 of over 100 µM.

Consider `O=C(CCc1nnc(CCCc2ccccc2)o1)NCCCC1CCCC1`, for which the IC50 was 21.5 µM and the concentration for an effect of 90% (IC90) amounted to 24.9 µM.

As to `Cc1cc(-c2cc(-c3ccccc3)on2)nc(NC2CCCC2)n1`, the IC50 is 34.5 µM and the IC90 turned out to be 56.6 µM.

As for `O=c1[nH]c(CN2CC=C(c3ccccc3)CC2)nc2cc(C(F)(F)F)ccc12`, the IC50 is 93.7 µM and the IC90 turned out to be 98.9 µM.

As for `Cc1occc1-c1nnc(SCC(=O)NCCc2ccccc2)o1`, the IC50 was 16.6 µM and the IC90 was found to be 25.2 µM.

For the compound `Oc1[nH]c2ccccc2c1N=NC(=S)N1CCOCC1`, the IC50 was 22.9 µM and the IC90 came out at 24.3 µM.

As for `COc1ccc(SN=C2C(C)=CC(=O)C=C2C)cc1`, the IC50 was 22.4 µM and the IC90 is 24.9 µM.

Take `CCOC(=O)C(C)Oc1ccc(OCc2ccccc2)cc1` (configuration not stated): the IC50 is 9.95 µM and the IC90 was 14.6 µM.

`Cc1cc(Br)ccc1NC(=O)c1cnc(N2CCN(c3ccccn3)CC2)c2ccccc12`: the IC50 was 2.34 µM and the IC90 was determined as 3.49 µM.

Take `c1cc2c3c(cccc3c1)NC1(CCC3(CC1)Nc1cccc4cccc(c14)N3)N2`: the IC50 is 78.1 µM and the IC90 was over 100 µM.

As for `CCOC(=O)c1c(CC(C)C)csc1NC(=O)CCl`, the half-maximal inhibitory concentration (IC50) was 2.66 µM and the IC90 was determined as 11.2 µM.

Consider `CC1=C(/C=C/C(C)=C/C=C/C(C)=C/C(=O)Nc2ccc(O)cc2)C(C)(C)CCC1`, for which the IC50 was 44.2 µM and the IC90 was 64.7 µM.

For `Cn1cc(C(=O)c2ccc(Cl)cc2)cc1-c1nc2ccccc2n1C`, the half-maximal inhibitory concentration (IC50) was 35.9 µM and the IC90 is 49.5 µM.

Regarding `Cc1cc2c(N=O)c(NO)ccc2[nH]1`, the IC50 was 11.9 µM and the IC90 turned out to be 18.2 µM.

For the compound `CC(OC(=O)COc1ccc(Nc2ccccc2)cc1)C(=O)N(C)c1ccccc1` (configuration not stated), the IC50 was 2.16 µM and the IC90 stood at 10.9 µM.

With `O=c1cc(/C=C/c2ccccc2)oc2ccccc12`, the IC50 was 97.6 µM and the IC90 is over 100 µM.

`c1ccc(C[C@H]2CN=C(Nc3ccccc3)N2CCCC2CCCC2)cc1`: the IC50 is 33.1 µM and the IC90 was 44.5 µM.

Regarding `Clc1cc(Cl)cc(Nc2ncn[nH]2)c1`, the IC50 was 64.6 µM and the 90% effect concentration (IC90) is over 100 µM.

Consider `CO[C@@H]1[C@@H](OC(N)=O)[C@@H](O)C(Oc2ccc3c(O)c(NC(=O)c4ccc(O)c(CC=C(C)C)c4)c(=O)oc3c2C)OC1(C)C` (some centres not stated), for which the IC50 was 9.33 µM and the IC90 came out at 14.5 µM.

As to `CC(C)NC(=O)c1onc(CSc2ccc(F)c(F)c2)c1C(=O)O`, the IC50 was 17.8 µM and the IC90 was determined as 22.9 µM.

Turning to `CCN(CC)S(=O)(=O)c1ccc2[nH]cc(C(=O)NCCC3=CCCCC3)c(=O)c2c1`, the IC50 is 91.7 µM and the IC90 is over 100 µM.

Take `Cc1ccc(C(=O)N/C(=C/c2ccco2)C(=O)OCN2C(=O)c3ccccc3C2=O)cc1`: the IC50 is 16.3 µM and the IC90 was 40.4 µM.

As for `O=C(CSC1=NC(=O)C(c2ccccc2)C(=O)N1)Nc1ccccc1Cl` (configuration not stated), the half-inhibitory concentration (IC50) was 7.27 µM and the IC90 is 24.2 µM.

Regarding `O=C(NC1CCCC(C(F)(F)F)C1)c1ccc([N+](=O)[O-])o1` (configuration not stated), the IC50 is 17.9 µM and the IC90 is 28.3 µM.

`CCCCN(C)C(=O)Cc1c(OC)ccc2cc(Br)ccc12`: the IC50 was 24.4 µM and the IC90 came to 33.5 µM.

As for `O=C(O)c1ccc(N2C(=O)/C(=C/c3ccc(-c4ccc([N+](=O)[O-])cc4)o3)C=C2c2ccccc2)cc1`, the IC50 was 49.8 µM and the 90% effect concentration (IC90) was over 100 µM.

Consider `COc1ccc(-c2cn(Cc3ccc(C(=O)NCc4ccc(C)cc4)cc3)c(C(C)N)n2)cc1` (configuration not stated), for which the IC50 was 66 µM and the IC90 was determined as 82.4 µM.

Take `CCN(CC)c1ccc(/C=C2\SC(=O)N(C(C)C)C2=O)o1`: the IC50 is 2.87 µM and the IC90 stood at 4.69 µM.

As to `Cc1cc(NC2CCCCC2)nc(-c2ccccc2O)n1`, the IC50 was 35.9 µM and the IC90 is 50.2 µM.

Regarding `CC(C)C(=O)N1CCC2(CC1)Oc1ccc(Cl)cc1C(=O)C21CC(c2ccccc2)=NO1` (configuration not stated), the IC50 was 59.4 µM and the IC90 is over 100 µM.

For `Cc1ccc(-n2nnc3c(=O)oc4ccccc4c32)cc1`, the IC50 was 1.88 µM and the IC90 was over 100 µM.

As to `O=C(O)/C=C/C(=O)Nc1ccc(-c2ccccc2)cc1`, the 50% inhibitory concentration (IC50) is 94.1 µM and the IC90 is over 100 µM.

Turning to `CNC(=S)/N=C/NOCc1c(Cl)cccc1Cl`, the IC50 is 2.96 µM and the IC90 is 3.35 µM.

In the case of `C/C(CC(=O)Nc1ccc(Cl)cc1C(F)(F)F)=N\NC(N)=S`, the IC50 is 15.9 µM and the IC90 came to 20.1 µM.

On to `CC(C)(C)c1ccc(C(=O)N2CCN(CCNC(=O)C(=O)NCc3ccc(Cl)cc3)CC2)cc1`, for which the concentration for half-maximal inhibition (IC50) is 24.7 µM and the IC90 was 46.7 µM.

With `Cc1nc(NC(=O)CC(C)C)sc1-c1csc(Nc2ccc(Cl)cc2Cl)n1`, the IC50 was 40.2 µM and the IC90 amounted to 83.7 µM.

For `COC(=O)C1=C(C)N(Cc2ccccc2)C(=NCc2cccc(Cl)c2)N[C@H]1c1ccccc1`, the concentration for half-maximal inhibition (IC50) was 20.4 µM and the IC90 was found to be 26.6 µM.

Take `O=C1Nc2ccc(Br)cc2C12NNc1ccccc1O2` (configuration not stated): the IC50 was 44.1 µM and the IC90 was determined as 62.9 µM.

Turning to `CC(=O)c1ccc(NC(=O)c2cc(CC(C)C)on2)cc1`, the IC50 was 12 µM and the IC90 came out at 13.8 µM.

In the case of `Cc1ncc(C23CC4CC(CC(C4)C2)C3)[nH]1`, the IC50 was 76.1 µM and the 90% effect concentration (IC90) was 96.7 µM.

Consider `CCc1ccc(NC(=S)/N=C(\N)Nc2nc(C)c3cc(CC)ccc3n2)cc1`, for which the IC50 is 10.9 µM and the IC90 came out at 21.1 µM.

As to `Cc1cc([N+](=O)[O-])c2ccccc2[n+]1[O-]`, the IC50 is 8.67 µM and the IC90 worked out at 13.8 µM.

With `CN(C)CCCN1c2ccccc2Sc2ccc(Cl)cc21`, the IC50 is 46.6 µM and the IC90 worked out at 60 µM.
